Tests used:
Format in all cases: cell-based, Saccharomyces cerevisiae
pYES2-HIK1 transformant = test: Reagent sensitivity by plate culture, HIK1-expressing yeast; settings: for concentration at which the effect was saturated / growth inhibition in the presence of the reagent: SG plates; for concentration at which the effect was saturated: GAL1 expression-inducing conditions (FIG. 5B); for growth inhibition in the presence of the reagent: GAL1 expression-inducing conditions, 30° C., 60 hours, 5-100 ppm (FIG. 5B)
ATCC201388 [pYES2-HIK1] = test: Reagent sensitivity by liquid culture (doubling time), HIK1-expressing yeast; settings: 25 ppm reagent, liquid culture in SG/-Ura (GAL1 expression-inducing conditions), 27° C., 160 rpm, average ± standard deviation
pYES2 transformant = test: Reagent sensitivity by plate culture, vector-only control yeast
[1] = system: hog1 mutant strain introducing pYES2-HIK1; test: Reagent sensitivity by plate culture, hog1 mutant strain introducing pYES2-HIK1; settings: 25 ppm fludioxonil, 25 ppm iprodione, 50 ppm chloroneb; SG plates, 30° C., 60 hours (FIG. 7A)
Text: (§1) A suspension of a control yeast cell introducing pYES2-HIK1 therein (uppermost rows), a suspension of a hog1 mutant strain cell introducing pYES2-HIK1 therein (second rows), a suspension of an ssk1 mutant strain cell introducing pYES2-HIK1 therein (third rows), a suspension of a ste11 mutant strain cell introducing pYES2-HIK1 therein (fourth rows), a suspension of a control yeast cell introducing pYES2 therein (fifth rows), a suspension of a hog1 mutant strain cell introducing pYES2-HIK1 therein (sixth rows), a suspension of an ssk1 mutant strain cell introducing pYES2-HIK1 therein (seventh rows), and a suspension of a ste11 mutant strain cell introducing pYES2-HIK1 therein (lowermost rows) were added (5 μl each) dropwise at 9 mm spacings (from the left, 10^7, 10^6, 10^5, and 10^4/ml) in order from the uppermost rows of plates of 90 mm in diameter containing a variety of reagents, followed by culture at 30° C. for 60 hours (or 96 hours for NaCl). […] A suspension of a hog1 mutant strain cell introducing pCLΔ-HOG1 and pYES2-HIK1 therein (uppermost rows), a suspension of a hog1 mutant strain cell introducing pCLΔ and pYES2-HIK1 therein (second rows), a suspension of an ssk1 mutant strain cell introducing pCLΔ-SSK1 and pYES2-HIK1 therein (third rows), and a suspension of an ssk1 mutant strain cell introducing pCLΔ and pYES2-HIK1 therein (lowermost rows) were added (5 μl each) dropwise at 9 mm spacings (from the left, 10 ^7, 10^6, 10^5, and 10^4/ ml) in order from the uppermost rows of plates of 90 mm in diameter containing a variety of reagents, followed by culture at 30° C. for 60 hours (or 96 hours for NaCl). The reagents were added to each SG medium so that 25 ppm fludioxonil, 25 ppm iprodione, 50 ppm chloroneb, and 0.5 M NaCl were contained in order from the second leftmost plate; and
(§2) Reagent sensitivity was analyzed by plate culture and liquid culture. In the plate culture, strains were precultured overnight in 5 ml of SD/-Ura and then collected, followed by washing with 10 ml of SG/-Ura. […]

[2] = system: ste11 mutant strain introducing pYES2-HIK1; test: Reagent sensitivity by plate culture, ste11 mutant strain introducing pYES2-HIK1; settings: 25 ppm fludioxonil, 25 ppm iprodione, 50 ppm chloroneb; SG plates, 30° C., 60 hours (FIG. 7A)
Text: as §1, §2

[3] = system: strain introducing pYES2-hik1-H736V; test: Reagent sensitivity by plate culture, yeast expressing Hik1-H736V (nonfunctional histidine kinase domain); settings: 25 ppm fludioxonil, 25 ppm iprodione, 50 ppm chloroneb; SG plates, 30° C., 72 hours (FIG. 6B)
Method: (§3) The reagents were added to each SG medium so that 25 ppm fludioxonil, 25 ppm iprodione, 50 ppm chloroneb, and 0.5 M NaCl were contained in order from the second leftmost plate;
(§4) Reagent sensitivity was analyzed by plate culture and liquid culture. In the plate culture, strains were precultured overnight in 5 ml of SD/-Ura and then collected, followed by washing with 10 ml of SG/-Ura. The resulting strains were cultured for 8 hours to 10 hours in 10 ml of SG/-Ura, followed by OD600 measurement. They were diluted to 10^7 cells/ml, 10^6 cells/ml, 10^5 cells/ml, and 10^4 cells/ml, and 5 μl each thereof was added dropwise onto SG/-Ura plates supplemented with a variety of reagents, and cultured for 60 hours to 240 hours. In the liquid culture, strains were precultured overnight in 5 ml of SD/-Ura and then collected, followed by washing with 10 ml of SG/-Ura. The resulting strains were cultured for 8 hours to 10 hours in 10 ml of SG/-Ura, followed by OD600 measurement. They were added at OD600=0.01 to 300-ml Erlenmeyer flasks accommodating 50 ml of SG/-Ura containing a variety of reagents. After shaking by spinning at 160 rpm and 27° C., sampling was performed after 12, 15, 18, 21, 24, 33, 36, and 39 hours, followed by OD600 measurement. A growth curve was created to calculate a doubling time.
(§5) (2) Mutagenized HIK1 was prepared with Mutan-Express Km kit (TAKARA SHUZO) using synthetic DNAs for mutagenesis (HK-H736V: 5′-[…]-3′ (SEQ ID NO: 2) and HK-D1153E: 5′-[…]-3′ (SEQ ID NO: 3)). Each mutagenized HIK1 was cloned into the BamHI site of pYES2 to prepare pYES2-hik1-H736V and […]. […]

[4] = system: ssk1 mutant strain introducing pYES2-HIK1; test: Reagent sensitivity by plate culture, ssk1 mutant strain introducing pYES2-HIK1; settings: 25 ppm fludioxonil, 25 ppm iprodione, 50 ppm chloroneb; SG plates, 30° C., 60 hours (FIG. 7A)
Text: as §1, §2

[5] = system: strain introducing pYES2-hik1-D1153E; test: Reagent sensitivity by plate culture, yeast expressing Hik1-D1153E (nonfunctional response regulator domain); settings: 25 ppm fludioxonil, 25 ppm iprodione, 50 ppm chloroneb; SG plates, 30° C., 72 hours (FIG. 6B)
Method: as §3, §4, §5

ATCC201388 [pYES2] = test: Reagent sensitivity by liquid culture (doubling time), vector-only control yeast; settings: 25 ppm reagent, liquid culture in SG/-Ura (GAL1 expression-inducing conditions), 27° C., 160 rpm, average ± standard deviation
[6] = SG plates, GAL1 expression-inducing conditions, 30° C., 60 hours, 5-100 ppm (FIG. 5B)
[7] = all the strains (control, hog1, ssk1, ste11 mutant) introducing pYES2, 25 ppm fludioxonil, 25 ppm iprodione, 50 ppm chloroneb (FIG. 7A)

Compound	concentration at which the effect was saturated (pYES2-HIK1 transformant)	growth inhibition in the presence of the reagent (pYES2-HIK1 transformant)	doubling time (ATCC201388 [pYES2-HIK1])	doubling time (ATCC201388 [pYES2-HIK1]; listed as chloroneb)	sensitivity to the reagent (pYES2 transformant; [6])	sensitivity to the reagent (pYES2 transformant; [7])	sensitivity to the reagent [1]	sensitivity to the reagent [2]	sensitivity to the reagent [3]	sensitivity to the reagent [4]	sensitivity to the reagent [5]	doubling time (ATCC201388 [pYES2])	doubling time (ATCC201388 [pYES2]; listed as chloroneb)	doubling time (ATCC201388 [pYES2-HIK1]; listed as fludioxonil)	doubling time (ATCC201388 [pYES2]; listed as fludioxonil)	doubling time (ATCC201388 [pYES2-HIK1]; listed as iprodione)	doubling time (ATCC201388 [pYES2]; listed as iprodione)	difference in sensitivity between the pYES2-HIK1 transformant and the pYES2 transformant (pYES2-HIK1 transformant; expression-inducing conditions, 0.25 ppm, cultured for 240 hours (FIG. 5B))
COc1cc(Cl)c(OC)cc1Cl [Chloroneb, chloroneb]	50 ppm	exhibited growth inhibition	2.90 ± 0.11 h	2.90 h	no sensitivity	no sensitivity	did not exhibit sensitivity	exhibited sensitivity	hardly exhibited sensitivity	did not exhibit sensitivity	hardly exhibited sensitivity	2.17 ± 0.08 h	around 2.2 hours					
N#Cc1c[nH]cc1-c1cccc2c1OC(F)(F)O2 [Fludioxonil, fludioxonil]	5 ppm	exhibited growth inhibition	4.25 ± 0.20 h		no sensitivity	no sensitivity	did not exhibit sensitivity	exhibited sensitivity	hardly exhibited sensitivity	did not exhibit sensitivity	hardly exhibited sensitivity	2.25 ± 0.06 h		4.25 h	around 2.2 hours			
CC(C)NC(=O)N1CC(=O)N(c2cc(Cl)cc(Cl)c2)C1=O [Iprodione, iprodione]	25 ppm	exhibited growth inhibition	3.12 ± 0.10 h		no sensitivity	no sensitivity	did not exhibit sensitivity	exhibited sensitivity	hardly exhibited sensitivity	did not exhibit sensitivity	hardly exhibited sensitivity	2.12 ± 0.06 h				3.12 h	around 2.2 hours	
C[C@@H]1C[C@@H]([C@H](O)CC2CC(=O)NC(=O)C2)C(=O)[C@@H](C)C1 [cycloheximide]																		No difference in sensitivity

Reference: patent US20070249011A1, “Method for Screening Fungus-Specific Antimicrobial Agent and Kit Therefor” (priority 2004, published 2007)
